Results reported in ChEMBL document CHEMBL1201862, “PubChem BioAssay data set” (2004).
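Results reflect a 48-hour exposure of cells in 96-well plates to compound at five concentrations. Abbreviation: GI50, concentration required for 50% inhibition of growth.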 Activity calls are given as the source filed them. Rule as the data show it: active = GI50 up to about 1.1 µM and inactive = higher.

Experiments:
Assay in all cases: NCI anticancer screen, dose series, 48 h
786-0 = tested on: 786-0
A498 = tested on: A498
A549 = tested on: A549
ACHN = tested on: ACHN
CAKI-1 = tested on: CAKI-1
CCRF-CEM = tested on: CCRF-CEM
DLD-1 = tested on: DLD-1
DMS-114 = tested on: DMS-114
DMS-273 = tested on: DMS-273
EKVX = tested on: EKVX
HCC 2998 = tested on: HCC 2998
HCT-116 = tested on: HCT-116
HCT-15 = tested on: HCT-15
HL-60 = tested on: HL-60
HOP-18 = tested on: HOP-18
HOP-62 = tested on: HOP-62
HOP-92 = tested on: HOP-92
HT-29 = tested on: HT-29
IGROV-1 = tested on: IGROV-1
K562 = tested on: K562
KM-20L2 = tested on: KM-20L2
KM12 = tested on: KM12
LXFL 529 = tested on: LXFL 529
M14 = tested on: M14
M19-MEL = tested on: M19-MEL
MOLT-4 = tested on: MOLT-4
NCI-H23 = tested on: NCI-H23
NCI-H460 = tested on: NCI-H460
NCI-H522 = tested on: NCI-H522
OVCAR-3 = tested on: OVCAR-3
OVCAR-4 = tested on: OVCAR-4
OVCAR-5 = tested on: OVCAR-5
OVCAR-8 = tested on: OVCAR-8
RPMI-8226 = tested on: RPMI-8226
RXF 631 = tested on: RXF 631
SF-268 = tested on: SF-268
SF-295 = tested on: SF-295
SF-539 = tested on: SF-539
SK-MEL-28 = tested on: SK-MEL-28
SK-MEL-5 = tested on: SK-MEL-5
SK-OV-3 = tested on: SK-OV-3
SN12C = tested on: SN12C
SNB-19 = tested on: SNB-19
SNB-75 = tested on: SNB-75
SNB-78 = tested on: SNB-78
SR = tested on: SR
SW-620 = tested on: SW-620
U-251 = tested on: U-251
UACC-257 = tested on: UACC-257
UACC-62 = tested on: UACC-62
UO-31 = tested on: UO-31
COLO 205 = tested on: COLO 205
LOX IMVI = tested on: LOX IMVI
Malme-3M = tested on: Malme-3M
NCI-H226 = tested on: NCI-H226
RXF 393 = tested on: RXF 393
SK-MEL-2 = tested on: SK-MEL-2
TK-10 = tested on: TK-10
XF498 = tested on: XF498

Structure (SMILES): C/C(=N\NS(=O)(=O)c1ccccc1)c1ccc[n+]([O-])n1
- GI50 (786-0): > 100 µM (inactive)
- GI50 (A498): > 100 µM (inactive)
- GI50 (A549): > 100 µM (inactive)
- GI50 (ACHN): > 100 µM (inactive)
- GI50 (CAKI-1): 34.1 µM (inactive)
- GI50 (CCRF-CEM): 19.4 µM (inactive)
- GI50 (DLD-1): 44.9 µM (inactive)
- GI50 (DMS-114): 97.3 µM (inactive)
- GI50 (DMS-273): > 100 µM (inactive)
- GI50 (EKVX): > 100 µM (inactive)
- GI50 (HCC 2998): > 100 µM (inactive)
- GI50 (HCT-116): 88.1 µM (inactive)
- GI50 (HCT-15): > 100 µM
- GI50 (HL-60): 21.8 µM (inactive)
- GI50 (HOP-18): > 100 µM (inactive)
- GI50 (HOP-62): > 100 µM (inactive)
- GI50 (HOP-92): 39 µM (inactive)
- GI50 (HT-29): > 100 µM (inactive)
- GI50 (IGROV-1): > 100 µM (inactive)
- GI50 (K562): 21 µM (inactive)
- GI50 (KM-20L2): > 100 µM (inactive)
- GI50 (KM12): > 100 µM (inactive)
- GI50 (LXFL 529): 37.8 µM (inactive)
- GI50 (M14): 30.1 µM (inactive)
- GI50 (M19-MEL): > 100 µM (inactive)
- GI50 (MOLT-4): 36.4 µM (inactive)
- GI50 (NCI-H23): > 100 µM (inactive)
- GI50 (NCI-H460): > 100 µM (inactive)
- GI50 (NCI-H522): 25.6 µM (inactive)
- GI50 (OVCAR-3): 42.5 µM (inactive)
- GI50 (OVCAR-4): 49.3 µM (inactive)
- GI50 (OVCAR-5): > 100 µM (inactive)
- GI50 (OVCAR-8): 81.7 µM (inactive)
- GI50 (RPMI-8226): 28.1 µM (inactive)
- GI50 (RXF 631): > 100 µM (inactive)
- GI50 (SF-268): > 100 µM (inactive)
- GI50 (SF-295): > 100 µM (inactive)
- GI50 (SF-539): > 100 µM (inactive)
- GI50 (SK-MEL-28): 62.5 µM (inactive)
- GI50 (SK-MEL-5): > 100 µM (inactive)
- GI50 (SK-OV-3): > 100 µM (inactive)
- GI50 (SN12C): > 100 µM (inactive)
- GI50 (SNB-19): > 100 µM (inactive)
- GI50 (SNB-75): 47.6 µM (inactive)
- GI50 (SNB-78): 63.7 µM (inactive)
- GI50 (SR): 32.3 µM (inactive)
- GI50 (SW-620): 34.8 µM (inactive)
- GI50 (U-251): > 100 µM (inactive)
- GI50 (UACC-257): 58.7 µM (inactive)
- GI50 (UACC-62): > 100 µM (inactive)
- GI50 (UO-31): > 100 µM (inactive)

Structure (SMILES): CCOC(=O)c1c2ccc(/C=C/c3ccccc3)ccc-2c(C(=O)OCC)c1N
- GI50 (786-0): > 100 µM (inactive)
- GI50 (A498): 36.1 µM (inactive)
- GI50 (A549): > 100 µM (inactive)
- GI50 (ACHN): > 100 µM (inactive)
- GI50 (CAKI-1): > 100 µM (inactive)
- GI50 (CCRF-CEM): > 100 µM (inactive)
- GI50 (COLO 205): > 100 µM (inactive)
- GI50 (DLD-1): > 100 µM (inactive)
- GI50 (DMS-114): > 100 µM (inactive)
- GI50 (DMS-273): > 100 µM (inactive)
- GI50 (EKVX): > 100 µM (inactive)
- GI50 (HCC 2998): 95.5 µM (inactive)
- GI50 (HCT-116): > 100 µM (inactive)
- GI50 (HCT-15): > 100 µM
- GI50 (HL-60): > 100 µM (inactive)
- GI50 (HOP-18): > 100 µM (inactive)
- GI50 (HOP-92): > 100 µM (inactive)
- GI50 (HT-29): 95.3 µM (inactive)
- GI50 (IGROV-1): > 100 µM (inactive)
- GI50 (K562): > 100 µM (inactive)
- GI50 (KM-20L2): > 100 µM (inactive)
- GI50 (KM12): 54.6 µM (inactive)
- GI50 (LOX IMVI): > 100 µM (inactive)
- GI50 (LXFL 529): 78.7 µM (inactive)
- GI50 (M14): > 100 µM (inactive)
- GI50 (M19-MEL): > 100 µM (inactive)
- GI50 (MOLT-4): > 100 µM (inactive)
- GI50 (Malme-3M): > 100 µM (inactive)
- GI50 (NCI-H226): > 100 µM (inactive)
- GI50 (NCI-H23): 32 µM (inactive)
- GI50 (NCI-H460): > 100 µM (inactive)
- GI50 (NCI-H522): > 100 µM (inactive)
- GI50 (OVCAR-3): > 100 µM (inactive)
- GI50 (OVCAR-4): 34.1 µM (inactive)
- GI50 (OVCAR-5): > 100 µM (inactive)
- GI50 (RXF 393): > 100 µM (inactive)
- GI50 (RXF 631): > 100 µM (inactive)
- GI50 (SF-268): > 100 µM (inactive)
- GI50 (SF-295): > 100 µM (inactive)
- GI50 (SF-539): > 100 µM (inactive)
- GI50 (SK-MEL-28): > 100 µM (inactive)
- GI50 (SK-MEL-2): > 100 µM (inactive)
- GI50 (SK-MEL-5): > 100 µM (inactive)
- GI50 (SK-OV-3): 86.1 µM (inactive)
- GI50 (SNB-19): > 100 µM (inactive)
- GI50 (SNB-75): 36.7 µM (inactive)
- GI50 (SR): 4.2 µM (inactive)
- GI50 (SW-620): > 100 µM (inactive)
- GI50 (TK-10): > 100 µM (inactive)
- GI50 (UACC-257): > 100 µM (inactive)
- GI50 (UACC-62): 73.6 µM (inactive)
- GI50 (UO-31): > 100 µM (inactive)

Structure (SMILES): CN(C)CCS/C(=N\c1ccccc1)n1cccc1
- GI50 (786-0): > 100 µM (inactive)
- GI50 (A549): > 100 µM (inactive)
- GI50 (ACHN): 78.5 µM (inactive)
- GI50 (CAKI-1): > 100 µM (inactive)
- GI50 (CCRF-CEM): 57.7 µM (inactive)
- GI50 (COLO 205): > 100 µM (inactive)
- GI50 (DLD-1): > 100 µM (inactive)
- GI50 (DMS-114): 26.3 µM (inactive)
- GI50 (DMS-273): 62.5 µM (inactive)
- GI50 (HCT-116): > 100 µM (inactive)
- GI50 (HCT-15): 98.4 µM
- GI50 (HL-60): 32.7 µM (inactive)
- GI50 (HOP-18): > 100 µM (inactive)
- GI50 (HOP-62): 25.7 µM (inactive)
- GI50 (HOP-92): 24 µM (inactive)
- GI50 (HT-29): 41.5 µM (inactive)
- GI50 (IGROV-1): > 100 µM (inactive)
- GI50 (K562): 53.6 µM (inactive)
- GI50 (KM-20L2): 32.1 µM (inactive)
- GI50 (KM12): 82.8 µM (inactive)
- GI50 (LOX IMVI): 43.5 µM (inactive)
- GI50 (LXFL 529): 42.7 µM (inactive)
- GI50 (M14): > 100 µM (inactive)
- GI50 (M19-MEL): 83.9 µM (inactive)
- GI50 (MOLT-4): 49.9 µM (inactive)
- GI50 (Malme-3M): 89.5 µM (inactive)
- GI50 (NCI-H226): 22.3 µM (inactive)
- GI50 (NCI-H23): 72.8 µM (inactive)
- GI50 (NCI-H460): > 100 µM (inactive)
- GI50 (NCI-H522): 33.9 µM (inactive)
- GI50 (OVCAR-3): > 100 µM (inactive)
- GI50 (OVCAR-4): > 100 µM (inactive)
- GI50 (OVCAR-5): > 100 µM (inactive)
- GI50 (OVCAR-8): > 100 µM (inactive)
- GI50 (RPMI-8226): > 100 µM (inactive)
- GI50 (RXF 393): 27.1 µM (inactive)
- GI50 (SF-268): 32.4 µM (inactive)
- GI50 (SF-295): > 100 µM (inactive)
- GI50 (SF-539): 66.5 µM (inactive)
- GI50 (SK-MEL-28): > 100 µM (inactive)
- GI50 (SK-MEL-2): 44.7 µM (inactive)
- GI50 (SK-MEL-5): 35.9 µM (inactive)
- GI50 (SK-OV-3): > 100 µM (inactive)
- GI50 (SN12C): 54.1 µM (inactive)
- GI50 (SNB-19): > 100 µM (inactive)
- GI50 (SNB-75): 27.6 µM (inactive)
- GI50 (SNB-78): 22.2 µM (inactive)
- GI50 (SR): 33.2 µM (inactive)
- GI50 (SW-620): > 100 µM (inactive)
- GI50 (TK-10): > 100 µM (inactive)
- GI50 (U-251): > 100 µM (inactive)
- GI50 (UACC-257): 42.9 µM (inactive)
- GI50 (UACC-62): 82.8 µM (inactive)
- GI50 (UO-31): 32.2 µM (inactive)
- GI50 (XF498): > 100 µM (inactive)
